Assay results: PubChem BioAssay AID624344 (Sanford-Burnham Center for Chemical Genomics, 2012)
The source made the active and inactive calls. How the calls were made is not given here.

What was measured:
[1] = system: Cytotoxicity; test: inhibitors of PAF-induced NFkB signaling in CF airway cells, dose response, cell-based, uHTS hits, panel, cytotoxicity readout (AID 624344); settings: CF bronchial epithelial cells, mean of runs
[2] = as above; settings: CF bronchial epithelial cells, PAF-induced NFkB reporter inhibition; with PAF, mean of runs

Structure (SMILES)	IC50 [1]	IC50 [2]
O=C(Nc1ccc(OCC(=O)N2CCOCC2)cc1)c1cncc(Br)c1	> 79 µM (inactive)	6.67 µM
O=[N+]([O-])c1cccc(NC(=S)Nc2nc(-c3ccccc3Cl)cs2)c1	10.1 µM	6.59 µM
Cc1ccccc1C(=O)N1CCN(c2ccc(NC(=O)c3cccc(OC(C)C)c3)cc2)CC1	> 79 µM (inactive)	6.7 µM
CCN1CCN(Cc2ccc(NC(=O)c3ccc(C)c(NC(=O)C(=O)c4c[nH]c5ccccc45)c3)cc2C(F)(F)F)CC1	10.4 µM	1.27 µM
Brc1ccc2ncnc(NCc3ccccc3)c2c1	6.15 µM	0.506 µM
CCSc1nsc(NC(=O)Nc2cccc(C(C)=O)c2)n1	36.5 µM	2.24 µM
COc1ccc2[nH]c(=O)c3c(c2c1)OC(C)(C)C=C3	19.8 µM	1.67 µM
COc1ccc(C2=Nn3c(nnc3-c3ccccc3OC)SC2)cc1OC1CCCC1	> 79 µM (inactive)	0.229 µM
COc1ccc(-n2c(C)cc3cc(OC(C)=O)ccc32)cc1	> 79 µM (inactive)	9.18 µM
C=CCN1c2ccccc2Sc2cnccc21	40.6 µM	2.59 µM
CCCc1nc(Cl)c(C#N)c2c1CCCC2	73 µM (inactive)	4.3 µM
CCOC(=O)Nc1ccc2c(c1)N(C(=O)CCN(CC)CC)c1ccccc1S2=O (stereo not given)	34.5 µM	5.94 µM
CC(C)Nc1ncnc2ccc(Br)cc12	10.8 µM	0.706 µM
CCn1c(=O)c2c(cnn2C)c2ccccc21	46.2 µM	2.18 µM
COc1ccc(Nc2nc(-c3ccccc3)nc3ccccc23)cc1S(=O)(=O)N1CCOCC1	7.17 µM	4.84 µM
c1ccc(-c2nc3nonc3nc2-c2ccccc2)cc1	45.4 µM	12.2 µM
O=C(Nc1ccccc1)c1cc2ccccc2c(=O)s1	> 79 µM (inactive)	5.4 µM
CCOC(=O)N1CCC(NC(=O)c2ccc3c(c2)N=C(C)c2c(C)ccc(C)c2S3)CC1	41.4 µM	11 µM
CCCCCCc1cc2cc(S(=O)(=O)c3ccc(F)cc3)c(=O)oc2cc1O	4.76 µM	4.48 µM
CN(C)C(=O)c1cccc(-c2cnc3sc(NCc4ccc5c(c4)OCO5)nn23)c1	46.5 µM	1.69 µM
Fc1ccc(-n2cc(-c3ccccc3)c3c(N4CCOCC4)ncnc32)cc1	8.13 µM	3.21 µM
COc1ccc2cc(C(N)=O)c(=Nc3ccc(C)cc3)oc2c1	13.3 µM	2.58 µM

Structure (SMILES)	IC50 [1]	IC50 [2]
Cc1nc2sc(C(N)=O)c(N)c2c(C)c1CC(=O)c1ccccc1	> 79 µM (inactive)	10.7 µM
Cc1cnc(C=O)c2cccc([N+](=O)[O-])c12	60.6 µM (inactive)	3.35 µM
Fc1ccc(Nc2ccnc(Nc3ccc(F)cc3)n2)cc1	14 µM	7.91 µM
O=[N+]([O-])C1C(c2ccccc2)C12c1ccccc1-c1ccccc12 (stereo not given)	64.1 µM (inactive)	inactive
O=C1/C(=C/c2cccnc2)CCc2c1[nH]c1ccccc21	25.1 µM	5.47 µM
Cc1ccc(C)c(S(=O)(=O)N(C(=O)c2ccncc2)c2ccc(OC(=O)c3ccncc3)cc2)c1	26.2 µM	2.37 µM
Cc1ccc(CNc2ncnc3ccc(-c4ccoc4C)cc23)o1	14.8 µM	0.381 µM
NC(=O)c1cc2ccc(O)cc2oc1=Nc1ccccc1	44.8 µM	1.41 µM
COc1ccc(OC)c(Nc2ncnc3ccc(Br)cc23)c1	13.8 µM	4.6 µM
CC(C)c1nc(NCCO)c(C#N)c2c1CCCC2	> 79 µM (inactive)	5.77 µM
CCC(=O)c1ccc(O)c(CC=C(C)C)c1	60.1 µM (inactive)	5.27 µM
O=C(c1cc([N+](=O)[O-])ccc1N1CCOCC1)N1CCN(c2ccccc2)CC1	> 79 µM (inactive)	inactive
N=C1N(c2ccccc2)C(=S)C(=Nc2ccccc2)N1c1ccccc1	33 µM	14.7 µM
COc1ccc(-c2cc(-c3nc4ccccn4c3NCc3ccccc3)ccc2OC)cc1	5.51 µM	4.41 µM
COCc1cc(S(=O)c2ccc(Cl)cc2)nc(C)n1 (stereo not given)	22 µM	3.13 µM
Cc1nn(-c2nccs2)c2c1C(=O)CC(C)(C)C2Br (stereo not given)	38.8 µM	5.11 µM
O=S(=O)(c1ccc(Br)cc1)c1cnc2ccccc2n1	7.65 µM	6.57 µM
COc1ccc(-c2ccccc2[C@H]2[C@@H]3C=CC[C@@H](C)[C@@H]3C(=O)N2Cc2ccccc2)cc1	19.6 µM	13.6 µM
O=C(NNC(=S)Nc1cccc(C(F)(F)F)c1)c1cccc(Cl)c1	9.54 µM	4.81 µM
COc1ccccc1/C=C/C(=O)c1c2c(c(C)[nH]c1=O)CCCC2	41.6 µM	2.94 µM
O=C(COc1ccc(Cl)cc1)Nc1ncc([N+](=O)[O-])s1	3.32 µM	1.02 µM
NC(c1csc(NC(=O)Nc2cccc(Cl)c2)n1)c1ccccc1Cl (stereo not given)	21.7 µM	7.54 µM

Structure (SMILES)	IC50 [1]	IC50 [2]
CCn1c2ccccc2c2cc(/C=N/O)ccc21	46.4 µM	3.38 µM
CC(=O)c1c(O)cc2c3c1OC(C)(C)C1CCC(C)(CC31)O2 (stereo not given)	53.5 µM (inactive)	2.73 µM
Clc1ccc(Cn2ncc3c(N4CCN(c5ccccc5)CC4)ncnc32)cc1	5.17 µM	4.7 µM
O=C(COC(=O)c1ccccc1C(=O)c1ccc(Cl)c([N+](=O)[O-])c1)NC1CCCCCC1	5.03 µM	1.6 µM
Cc1ccc(S(=O)(=O)Nc2nc3ccccc3nc2Nc2cccc(S(=O)(=O)N3CCCC3)c2)cc1	41.3 µM	3.57 µM
Cc1c(-c2ccccc2)oc2c(C(=O)N3CCN(c4ccc([N+](=O)[O-])cc4)CC3)cccc2c1=O	> 79 µM (inactive)	0.854 µM
COc1cc(NC(=O)c2cc3ccccc3cc2OC)ccc1NC(=O)c1cccs1	11 µM	5.79 µM
O=C(NNc1ccccc1Cl)C(O)(c1cccc(C(F)(F)F)c1)c1cccc(C(F)(F)F)c1	7.25 µM	13.3 µM
O=C(N/N=C/c1ccccc1)c1[nH]c2ccc(Br)cc2c1-c1ccccc1	40.6 µM	6.11 µM
COc1ccc(CN(C(=O)CSc2nnc(-c3c[nH]c4ccccc34)o2)c2ccc(F)cc2)cc1OC	7.44 µM	3.94 µM
Cc1nn(-c2ccccc2)c(Cl)c1C(=O)N1CCN(c2ncnc3c2cnn3-c2ccccc2)CC1	1.42 µM	3.18 µM
N#Cc1ccsc1NC(=O)c1ccc(Cl)c([N+](=O)[O-])c1	18.4 µM	4.95 µM
CCOC(=O)c1sc(NC(=O)c2cccc(S(=O)(=O)N3CCc4ccccc43)c2)c(C#N)c1C	6.88 µM	1.02 µM
c1ccc2c(-c3ccc4nncn4c3)cncc2c1	> 79 µM (inactive)	1.42 µM
O=[N+]([O-])c1ccc(NC(=S)NCCc2ccc(F)cc2)cc1	4.52 µM	4.58 µM
Nc1nccc(-c2ccc(-n3cnc4ccccc43)cc2)n1	49.1 µM	2.13 µM
COc1ccc(CNc2nn3c(-c4cccc(C(=O)N(C)C)c4)cnc3s2)cc1	33.6 µM	2.46 µM
COc1ccccc1NS(=O)(=O)c1cccc(-n2c(O)c(C=Nc3ccccc3C(=O)O)c3ccccc3c2=O)c1	37.1 µM	5.54 µM
CC(C)(C)C(=O)/C(=C/c1ccncc1)n1cncn1	15.1 µM	2.22 µM
Cc1ccc(-n2cc(-c3ccccc3)c3c(N4CCOCC4)ncnc32)cc1	3.85 µM	3.49 µM
CCOC(=O)c1[nH]c2c(c1C)C(=O)CC(c1ccco1)C2 (stereo not given)	> 79 µM (inactive)	inactive
Cc1ccc(Nc2nc3nonc3[nH]c2=O)cc1Cl	15.1 µM	4.7 µM

Structure (SMILES)	IC50 [1]	IC50 [2]
COc1ccccc1NS(=O)(=O)c1ccc(-c2cnc(C3CC3)o2)cc1	> 79 µM (inactive)	16.7 µM
O=C(Nc1cccc(Cl)c1)Nc1cc(S(=O)(=O)N2CCCCC2)ccc1Cl	9.07 µM	6.4 µM
NC(=O)c1sc2nc3c(c(-c4ccco4)c2c1N)CCCC3	44.5 µM	2.73 µM
CCOC(=O)c1ccc(-n2[nH]c(-c3ccccc3)cc2=O)cc1	3.77 µM	5.35 µM
COc1cccc(C(=O)N2C(C(C)C)COc3cc(Br)ccc3S2(=O)=O)c1 (stereo not given)	24.7 µM	12 µM
O=C1OC(c2ccccc2)(c2cc(Br)ccc2O)c2ccccc21 (stereo not given)	42.4 µM	6.65 µM
Clc1ccc(-c2csc3ncnc(N4CCc5ccccc5C4)c23)cc1	19.2 µM	3.99 µM
COc1ccc(COC(=O)C2=C(C)NC(=O)NC2c2ccc(OC)cc2)cc1 (stereo not given)	44.5 µM	6.54 µM
COc1ccc(-n2nc(C(=O)NCC(=O)Nc3cc(OC)c(OC)c(OC)c3)c3ccccc3c2=O)cc1OC	14.6 µM	2.25 µM
COc1cccc(-c2ccc3ncnc(NCc4cccc(C)c4)c3c2)c1	13 µM	5.66 µM
Cc1cccc(Nc2ncnc3ccc(Br)cc23)c1	13.1 µM	3.93 µM
O=C(Nc1ccc(Oc2ccc(NC(=O)Nc3ccc([N+](=O)[O-])cc3)cc2)cc1)Nc1ccc([N+](=O)[O-])cc1	27.8 µM	6.12 µM
CCOC(=O)C1(C(=O)OCC)COC(=O)C1CN1Cc2cc3ccccc3nc2C1 (stereo not given)	11.1 µM	7.48 µM
O=c1cc(-c2ccccc2Cl)oc2c([N+](=O)[O-])c(O)cc(O)c12	5.36 µM	0.235 µM
N#Cc1c(Br)n(C2OC(CO)C(O)C2O)c2ncnc(N)c12 (stereo not given)	3.58 µM	0.444 µM
COc1ccc(N(Cc2cc(=O)[nH]c3ccccc23)C(=O)CCl)cc1	4.29 µM	2.89 µM
COCCCN=C1NN=C(c2cc(C)n(Cc3ccccc3Cl)c2C)CS1	> 79 µM (inactive)	inactive
Nc1nccc(SCc2ccc(Cl)cc2Cl)n1	> 79 µM (inactive)	14.3 µM
CCOC(=O)c1c(C)cc2c(CO)n[nH]c(=O)c2c1C	62.8 µM (inactive)	6.83 µM
